Where a SMILES comes first, the peptide text is derived from it. Bridges are numbered along the chain shown (N, C = ends).
How the values were obtained:
α7 nAChR [1] = molecular target: α7 nAChR (Rattus norvegicus, UniProt Q05941); assay: cell-based
α7 nAChR [2] = molecular target: α7 nAChR (Homo sapiens, UniProt P36544); assay: cell-based; type: binding
Chain of α7 nAChR (Homo sapiens, UniProt P36544) (P36544 23-502 limits assumed): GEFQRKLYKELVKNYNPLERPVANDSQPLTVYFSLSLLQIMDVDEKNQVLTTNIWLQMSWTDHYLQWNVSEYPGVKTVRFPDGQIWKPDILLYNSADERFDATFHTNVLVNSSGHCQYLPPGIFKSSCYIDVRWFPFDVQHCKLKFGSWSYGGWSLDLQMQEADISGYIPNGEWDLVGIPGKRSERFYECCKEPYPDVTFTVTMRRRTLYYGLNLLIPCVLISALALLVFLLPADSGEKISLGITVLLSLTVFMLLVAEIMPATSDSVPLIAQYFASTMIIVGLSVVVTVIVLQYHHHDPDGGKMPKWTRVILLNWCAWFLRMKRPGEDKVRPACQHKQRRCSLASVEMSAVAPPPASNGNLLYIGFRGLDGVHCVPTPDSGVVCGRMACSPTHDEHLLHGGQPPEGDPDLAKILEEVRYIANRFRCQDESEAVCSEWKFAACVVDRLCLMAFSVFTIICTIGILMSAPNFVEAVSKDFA

Chain of α7 nAChR (Rattus norvegicus, UniProt Q05941) (Q05941 23-502 limits assumed): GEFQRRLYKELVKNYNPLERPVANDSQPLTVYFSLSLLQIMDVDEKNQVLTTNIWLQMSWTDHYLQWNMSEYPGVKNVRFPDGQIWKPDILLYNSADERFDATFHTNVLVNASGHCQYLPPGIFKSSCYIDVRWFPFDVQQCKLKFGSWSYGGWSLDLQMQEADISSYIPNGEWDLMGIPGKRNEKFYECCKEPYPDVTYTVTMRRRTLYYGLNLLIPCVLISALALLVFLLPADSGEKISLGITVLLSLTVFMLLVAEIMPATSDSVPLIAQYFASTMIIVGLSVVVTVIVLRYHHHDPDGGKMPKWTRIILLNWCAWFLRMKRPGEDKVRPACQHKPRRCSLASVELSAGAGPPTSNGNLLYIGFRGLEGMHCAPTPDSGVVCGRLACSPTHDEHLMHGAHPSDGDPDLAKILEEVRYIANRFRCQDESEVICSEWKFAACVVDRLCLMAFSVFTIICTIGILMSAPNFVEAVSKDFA

Structure (SMILES): CC(C)C[C@@H]1NC(=O)[C@H](CO)NC(=O)[C@@H]2CSSC[C@@H](C(N)=O)NC(=O)[C@H](Cc3ccc(O)cc3)NC(=O)[C@H](CC(=O)O)NC(=O)[C@@H]3CCCN3C(=O)[C@H](CC(N)=O)NC(=O)[C@H](CC(N)=O)NC(=O)[C@H](C)NC(=O)[C@H](CCCNC(=N)N)NC(=O)[C@H](CSSC[C@H](NC(=O)CN)C(=O)N2)NC(=O)[C@@H]2CCCN2C(=O)[C@@H]2CCCN2C1=O [PnIA[R9]] (H-GCCSLPPCRANNPDYC-NH2; disulfide 2-8, 3-16)
- IC50 (α7 nAChR [1]): 27 ± 10 nM
- IC50 (α7 nAChR [2]): 1490 nM

Structure (SMILES): CC(C)C[C@@H]1NC(=O)[C@H](CCCNC(=N)N)NC(=O)[C@@H]2CSSC[C@H](NC(=O)CN)C(=O)N[C@@H](CSSC[C@@H](C(N)=O)NC(=O)[C@H](Cc3ccc(O)cc3)NC(=O)[C@H](CCCNC(=N)N)NC(=O)[C@@H]3CCCN3C(=O)[C@H](CC(N)=O)NC(=O)[C@H](CC(N)=O)NC1=O)C(=O)N[C@@H](CO)C(=O)N[C@@H](CCCNC(=N)N)C(=O)N1CCC[C@H]1C(=O)N1CCC[C@H]1C(=O)N2 [PnIA[R5, R9, L10, R14]] (H-GCCSRPPCRLNNPRYC-NH2; disulfide 2-8, 3-16)
- IC50 (α7 nAChR [1]): 17 ± 2 nM

Structure (SMILES): CC(C)C[C@@H]1NC(=O)[C@H](CCCNC(=N)N)NC(=O)[C@@H]2CSSC[C@H](NC(=O)CN)C(=O)N[C@@H](CSSC[C@@H](C(N)=O)NC(=O)[C@H](Cc3ccc(O)cc3)NC(=O)[C@H](CC(=O)O)NC(=O)[C@@H]3CCCN3C(=O)[C@H](CC(N)=O)NC(=O)[C@H](CC(N)=O)NC1=O)C(=O)N[C@@H](CO)C(=O)N[C@@H](CC(C)C)C(=O)N1CCC[C@H]1C(=O)N1CCC[C@H]1C(=O)N2 [PnIA[R9, L10]] (H-GCCSLPPCRLNNPDYC-NH2; disulfide 2-8, 3-16)
- IC50 (α7 nAChR [1]): 27 ± 11 nM
- displacement of [125I]-PnIA[R9, L10] by non-radioactive peptide (α7 nAChR [2]): 100%

Source: PMC5107951 (Scientific Reports, 2016)
